Results on 11 compounds are retold here after patent publication US12594276B2, “Inhibitors of human immunodeficiency virus replication” (ViiV Healthcare UK (No.5) Limited, priority 2024, dated 2026).

Molecules are shown by their SMILES. A value given as a limit tells only on which side of the number the result lay.

The test system of series [1] is recombinant NL4-3 virus (nef section replaced with Renilla luciferase gene) in MT-2 cells. In words: HIV cell culture assay (antiviral activity, luciferase readout). It is filed as cell-based. The note with it: Renilla, NL43, MT-2 cells infected for 4-5 days with recombinant NL4-3 Renilla luciferase virus. The essentials: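 293T transfection → virus harvest at 2-3 d → titer in MT-2 by luciferase. MT-2 + virus + serial cpd dilutions, 4-5 d. Live-cell luciferase read; EC50 by median effect fit.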

Series [2] is described as follows: Compound cytotoxicity, XTT-based colorimetric assay. The series is classed as cell-based. The following applies: human; uninfected MT2 cells, day 4, XTT; read-out: CC50. The essentials:
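Uninfected MT2 cells were treated with compound under the same protocol as the antiviral assay. Viability was read on day 4 with an XTT colorimetric assay, from which CC50 values were derived.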
(Tetrazolium dyes change colour on reduction, which living cells bring about.)

For orientation: EC50 means the concentration giving half of the maximal effect. A word on the CC50: it is the concentration that lowers cell viability or growth by half.

In the case of `Cc1cc(C2CCC(F)(F)CC2)nc2nc([C@H](Cc3cc(F)cc(F)c3)NC(=O)Cn3nc(C(F)(F)F)c4c3C(F)(F)[C@@H]3C[C@H]43)n(-c3ccc(Cl)c4c(NS(C)(=O)=O)nn(CCN5CCOCC5)c34)c(=O)c12` (atropisomer, axis not shown; (P)) [Example 116, N-[(1S)-1-[(3P)-3-{4-chloro-3-methanesulfonamido-1-[2-(morpholin-4-yl)ethyl]-1H-indazol-7-yl}-7-(4,4-difluorocyclohexyl)-5-methyl-4-oxo-3H,4H-pyrido[2,3-d]pyrimidin-2-yl]-2-(3,5-difluorophenyl)ethyl]-2-[(2S,4R)-5,5-difluoro-9-(trifluoromethyl)-7,8-diazatricyclo[4.3.0.0^2,^4]nona-1(6),8-dien-7-yl]acetamide], the EC50 in series [1] is 0.012 nM. For the same compound, the CC50 at 4 days in series [2] is > 50 nM.

As for `Cc1cc(C2CCC(F)(F)CC2)nc2nc([C@H](Cc3cc(F)cc(F)c3)NC(=O)Cn3nc(C(F)(F)F)c4c3C(F)(F)[C@@H]3C[C@H]43)n(-c3ccc(Cl)c4c(NS(C)(=O)=O)nn(CCCN5CCOCC5)c34)c(=O)c12` (atropisomer, axis not shown; (P)) [Example 121, N-[(1S)-1-[(3P)-3-{4-chloro-3-methanesulfonamido-1-[3-(morpholin-4-yl)propyl]-1H-indazol-7-yl}-7-(4,4-difluorocyclohexyl)-5-methyl-4-oxo-3H,4H-pyrido[2,3-d]pyrimidin-2-yl]-2-(3,5-difluorophenyl)ethyl]-2-[(2S,4R)-5,5-difluoro-9-(trifluoromethyl)-7,8-diazatricyclo[4.3.0.0^2,^4]nona-1(6),8-dien-7-yl]acetamide], in series [1], the EC50 came to 0.027 nM. Besides, in series [2], the CC50 at 4 days was > 50 nM.

For `Cc1cc(C2CCC(F)(F)CC2)nc2nc([C@H](Cc3cc(F)cc(F)c3)NC(=O)Cn3nc(C(F)F)c4c3C(F)(F)[C@@H]3C[C@H]43)n(-c3ccc(Cl)c4c(NS(C)(=O)=O)nn(CCN5CCC(F)(F)CC5)c34)c(=O)c12` (atropisomer, axis not shown; (P)) [Example 128, N-[(1S)-1-[(3P)-3-{4-chloro-1-[2-(4,4-difluoropiperidin-1-yl)ethyl]-3-methanesulfonamido-1H-indazol-7-yl}-7-(4,4-difluorocyclohexyl)-5-methyl-4-oxo-3H,4H-pyrido[2,3-d]pyrimidin-2-yl]-2-(3,5-difluorophenyl)ethyl]-2-[(2S,4R)-9-(difluoromethyl)-5,5-difluoro-7,8-diazatricyclo[4.3.0.0^2,^4]nona-1(6),8-dien-7-yl]acetamide], the EC50 in series [1] was 0.013 nM. In addition, in series [2], the half-maximal cytotoxic concentration (CC50) at 4 days was > 50 nM.

Turning to `Cc1cc(C2CCC(F)(F)CC2)nc2nc([C@H](Cc3cc(F)cc(F)c3)NC(=O)Cn3nc(C(F)F)c4c3C(F)(F)[C@@H]3C[C@H]43)n(-c3ccc(Cl)c4c(NS(C)(=O)=O)nn(CCOC(C)(C)C)c34)c(=O)c12` (atropisomer, axis not shown; (P)) [Example 129, N-[(1S)-1-[(3P)-3-{1-[2-(tert-butoxy)ethyl]-4-chloro-3-methanesulfonamido-1H-indazol-7-yl}-7-(4,4-difluorocyclohexyl)-5-methyl-4-oxo-3H,4H-pyrido[2,3-d]pyrimidin-2-yl]-2-(3,5-difluorophenyl)ethyl]-2-[(2S,4R)-9-(difluoromethyl)-5,5-difluoro-7,8-diazatricyclo[4.3.0.0^2,^4]nona-1(6),8-dien-7-yl]acetamide], the EC50 in series [1] came out at 0.024 nM. Besides, the CC50 at 4 days in series [2] was > 50 nM.

Consider `CS(=O)(=O)Nc1nn(CCN2CCC(F)(F)CC2)c2c(-n3c([C@H](Cc4cc(F)cc(F)c4)NC(=O)Cn4nc(C(F)F)c5c4C(F)(F)[C@@H]4C[C@H]54)nc4nc(C5CCC(F)(F)CC5)ccc4c3=O)ccc(Cl)c12` (atropisomer, axis not shown; (P)) [Example 130, N-[(1S)-1-[(3P)-3-{4-chloro-1-[2-(4,4-difluoropiperidin-1-yl)ethyl]-3-methanesulfonamido-1H-indazol-7-yl}-7-(4,4-difluorocyclohexyl)-4-oxo-3H,4H-pyrido[2,3-d]pyrimidin-2-yl]-2-(3,5-difluorophenyl)ethyl]-2-[(2S,4R)-9-(difluoromethyl)-5,5-difluoro-7,8-diazatricyclo[4.3.0.0^2,^4]nona-1(6),8-dien-7-yl]acetamide], for which, in series [1], the EC50 was determined as 0.013 nM. Moreover, in series [2], the CC50 at 4 days is > 50 nM.

Consider `COCCNc1cc(C2CCC(F)(F)CC2)nc2nc([C@H](Cc3cc(F)cc(F)c3)NC(=O)Cn3nc(C(F)F)c4c3C(F)(F)[C@@H]3C[C@H]43)n(-c3ccc(Cl)c4c(NS(C)(=O)=O)nn(CCOC)c34)c(=O)c12` (atropisomer, axis not shown; (P)) [Example 134, N-[(1S)-1-[(3P)-3-[4-chloro-3-methanesulfonamido-1-(2-methoxyethyl)-1H-indazol-7-yl]-7-(4,4-difluorocyclohexyl)-5-[(2-methoxyethyl)amino]-4-oxo-3H,4H-pyrido[2,3-d]pyrimidin-2-yl]-2-(3,5-difluorophenyl)ethyl]-2-[(2S,4R)-9-(difluoromethyl)-5,5-difluoro-7,8-diazatricyclo[4.3.0.0^2,^4]nona-1(6),8-dien-7-yl]acetamide], for which the EC50 in series [1] was found to be 0.022 nM. Moreover, the CC50 at 4 days in series [2] is > 50 nM.

Turning to `COCCCn1nc(NS(C)(=O)=O)c2c(Cl)ccc(-n3c([C@H](Cc4cc(F)cc(F)c4)NC(=O)Cn4nc(C(F)F)c5c4C(F)(F)[C@@H]4C[C@H]54)nc4nc(C5CCC(F)(F)CC5)cc(NCCOC)c4c3=O)c21` (atropisomer, axis not shown; (P)) [Example 135, N-[(1S)-1-[(3P)-3-[4-chloro-3-methanesulfonamido-1-(3-methoxypropyl)-1H-indazol-7-yl]-7-(4,4-difluorocyclohexyl)-5-[(2-methoxyethyl)amino]-4-oxo-3H,4H-pyrido[2,3-d]pyrimidin-2-yl]-2-(3,5-difluorophenyl)ethyl]-2-[(2S,4R)-9-(difluoromethyl)-5,5-difluoro-7,8-diazatricyclo[4.3.0.0^2,4]nona-1(6),8-dien-7-yl]acetamide], the EC50 in series [1] was determined as 0.013 nM. Besides, the 50% cytotoxic concentration (CC50) at 4 days in series [2] was > 50 nM.

As to `CS(=O)(=O)Nc1nn(CCN2CCC(F)(F)CC2)c2c(-n3c([C@H](Cc4cc(F)cc(F)c4)NC(=O)Cn4nc(C(F)F)c5c4C(F)(F)[C@@H]4C[C@H]54)nc4nc(C5CCC(F)(F)CC5)cc(C(F)F)c4c3=O)ccc(Cl)c12` (atropisomer, axis not shown; (P)) [Example 149, N-[(1S)-1-[(3P)-3-{4-chloro-1-[2-(4,4-difluoropiperidin-1-yl)ethyl]-3-methanesulfonamido-1H-indazol-7-yl}-7-(4,4-difluorocyclohexyl)-5-(difluoromethyl)-4-oxo-3H,4H-pyrido[2,3-d]pyrimidin-2-yl]-2-(3,5-difluorophenyl)ethyl]-2-[(2S,4R)-9-(difluoromethyl)-5,5-difluoro-7,8-diazatricyclo[4.3.0.0^2,^4]nona-1(6),8-dien-7-yl]acetamide], the EC50 in series [1] was determined as 0.018 nM. The CC50 at 4 days in series [2] was > 50 nM.

In the case of `CCOCCn1nc(NS(C)(=O)=O)c2c(Cl)ccc(-n3c([C@H](Cc4cc(F)cc(F)c4)NC(=O)Cn4nc(C(F)F)c5c4C(F)(F)[C@@H]4C[C@H]54)nc4nc(C5CCC(F)(F)CC5)cc(C(F)F)c4c3=O)c21` (atropisomer, axis not shown; (P)) [Example 150, N-[(1S)-1-[(3P)-3-[4-chloro-1-(2-ethoxyethyl)-3-methanesulfonamido-1H-indazol-7-yl]-7-(4,4-difluorocyclohexyl)-5-(difluoromethyl)-4-oxo-3H,4H-pyrido[2,3-d]pyrimidin-2-yl]-2-(3,5-difluorophenyl)ethyl]-2-[(2S,4R)-9-(difluoromethyl)-5,5-difluoro-7,8-diazatricyclo[4.3.0.0^2,^4]nona-1(6),8-dien-7-yl]acetamide], the EC50 in series [1] was 0.017 nM. The half-maximal cytotoxic concentration (CC50) at 4 days in series [2] was > 50 nM.

For `CS(=O)(=O)Nc1nn(CCN2CCC(F)(F)C2)c2c(-n3c([C@H](Cc4cc(F)cc(F)c4)NC(=O)Cn4nc(C(F)F)c5c4C(F)(F)[C@@H]4C[C@H]54)nc4nc(C5CCC(F)(F)CC5)cc(C(F)F)c4c3=O)ccc(Cl)c12` (atropisomer, axis not shown; (P)) [Example 154, N-[(1S)-1-[(3P)-3-{4-chloro-1-[2-(3,3-difluoropyrrolidin-1-yl)ethyl]-3-methanesulfonamido-1H-indazol-7-yl}-7-(4,4-difluorocyclohexyl)-5-(difluoromethyl)-4-oxo-3H,4H-pyrido[2,3-d]pyrimidin-2-yl]-2-(3,5-difluorophenyl)ethyl]-2-[(2S,4R)-9-(difluoromethyl)-5,5-difluoro-7,8-diazatricyclo[4.3.0.0^2,^4]nona-1(6),8-dien-7-yl]acetamide], in series [1], the concentration giving a half-maximal response (EC50) was found to be 0.019 nM. Besides, the CC50 at 4 days in series [2] was > 50 nM.

As to `CS(=O)(=O)Nc1nn(CCOCC(F)(F)F)c2c(-n3c([C@H](Cc4cc(F)cc(F)c4)NC(=O)Cn4nc(C(F)F)c5c4C(F)(F)[C@@H]4C[C@H]54)nc4nc(C5CCC(F)(F)CC5)cc(C(F)F)c4c3=O)ccc(Cl)c12` (atropisomer, axis not shown; (P)) [Example 155, N-[(1S)-1-[(3P)-3-{4-chloro-3-methanesulfonamido-1-[2-(2,2,2-trifluoroethoxy)ethyl]-1H-indazol-7-yl}-7-(4,4-difluorocyclohexyl)-5-(difluoromethyl)-4-oxo-3H,4H-pyrido[2,3-d]pyrimidin-2-yl]-2-(3,5-difluorophenyl)ethyl]-2-[(2S,4R)-9-(difluoromethyl)-5,5-difluoro-7,8-diazatricyclo[4.3.0.0^2,^4]nona-1(6),8-dien-7-yl]acetamide], in series [1], the EC50 came out at 0.027 nM. For the same compound, the 50% cytotoxic concentration (CC50) at 4 days in series [2] was > 50 nM.
